Consider one compound from ChEMBL document CHEMBL3525953, “In vitro cytochrome P450-mediated metabolism of exemestane” (Drug Metab Dispos, 2011).

Holding throughout (assay type): ADME
In one series the target is T1, Cytochrome P450 1A1 (Homo sapiens, UniProt P04798).
T1 sequence (P04798 whole entry): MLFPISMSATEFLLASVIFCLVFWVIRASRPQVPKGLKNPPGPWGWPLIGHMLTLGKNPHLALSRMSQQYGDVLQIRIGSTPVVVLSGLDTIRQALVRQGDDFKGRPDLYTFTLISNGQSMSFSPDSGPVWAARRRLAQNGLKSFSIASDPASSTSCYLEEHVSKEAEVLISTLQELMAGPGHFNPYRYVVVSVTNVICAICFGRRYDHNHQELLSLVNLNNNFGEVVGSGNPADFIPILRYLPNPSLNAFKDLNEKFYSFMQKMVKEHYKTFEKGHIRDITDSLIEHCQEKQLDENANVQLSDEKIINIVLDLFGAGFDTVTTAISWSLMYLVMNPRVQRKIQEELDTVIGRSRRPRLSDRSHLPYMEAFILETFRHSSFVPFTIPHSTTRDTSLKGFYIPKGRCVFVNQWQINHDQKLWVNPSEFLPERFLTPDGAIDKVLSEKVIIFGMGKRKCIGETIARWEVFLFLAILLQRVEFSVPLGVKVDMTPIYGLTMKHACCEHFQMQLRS
Put plainly: Drug metabolism assessed as human recombinant CYP1A1-mediated 17-hydroexemestane formation rate per pmol of enzyme at 10 uM after 10 mins.

A further series has as its target T2, Cytochrome P450 2A6 (Homo sapiens, UniProt P11509).
T2 sequence (P11509 whole entry): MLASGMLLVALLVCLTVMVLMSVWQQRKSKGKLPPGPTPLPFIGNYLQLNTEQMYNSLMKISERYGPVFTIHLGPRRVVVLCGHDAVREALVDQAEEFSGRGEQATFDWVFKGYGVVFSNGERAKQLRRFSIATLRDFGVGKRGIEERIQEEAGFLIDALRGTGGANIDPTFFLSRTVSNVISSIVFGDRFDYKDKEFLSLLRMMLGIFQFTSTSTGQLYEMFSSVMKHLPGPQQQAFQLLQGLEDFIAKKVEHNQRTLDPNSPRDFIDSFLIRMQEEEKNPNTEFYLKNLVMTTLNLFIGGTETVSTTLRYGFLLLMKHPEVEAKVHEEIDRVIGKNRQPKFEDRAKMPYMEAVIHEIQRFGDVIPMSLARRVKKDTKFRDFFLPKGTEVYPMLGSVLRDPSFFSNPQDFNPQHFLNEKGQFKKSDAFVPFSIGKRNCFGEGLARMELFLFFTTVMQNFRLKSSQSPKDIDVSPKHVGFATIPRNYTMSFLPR
Put plainly: Drug metabolism assessed as human recombinant CYP2A6-mediated 17-hydroexemestane formation rate per pmol of enzyme at 10 uM after 10 mins.

The next series concerns the target Cytochrome P450 3A5 (Homo sapiens, UniProt P20815). Put plainly: Drug metabolism assessed as human recombinant CYP3A5-mediated 17-hydroexemestane formation rate per pmol of enzyme at 10 uM after 10 mins.
The target of the next series is T3, Cytochrome P450 2B6 (Homo sapiens, UniProt P20813).
T3 sequence (P20813 whole entry): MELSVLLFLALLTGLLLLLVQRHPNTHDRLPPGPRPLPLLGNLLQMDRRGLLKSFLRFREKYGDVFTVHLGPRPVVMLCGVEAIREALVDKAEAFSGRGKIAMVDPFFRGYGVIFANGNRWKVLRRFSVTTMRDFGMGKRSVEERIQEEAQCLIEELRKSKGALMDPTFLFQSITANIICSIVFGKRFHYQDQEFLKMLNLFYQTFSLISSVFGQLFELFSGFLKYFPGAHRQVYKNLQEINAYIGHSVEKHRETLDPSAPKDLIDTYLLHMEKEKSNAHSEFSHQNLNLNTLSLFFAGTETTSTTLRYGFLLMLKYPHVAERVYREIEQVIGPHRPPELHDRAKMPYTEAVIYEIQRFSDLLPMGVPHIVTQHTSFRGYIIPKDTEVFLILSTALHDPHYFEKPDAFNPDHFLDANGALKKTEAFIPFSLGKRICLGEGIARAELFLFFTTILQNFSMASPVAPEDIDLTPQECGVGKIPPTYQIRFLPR
Put plainly: Drug metabolism assessed as human recombinant CYP2B6-mediated 17-hydroexemestane formation rate per pmol of enzyme at 10 uM after 10 mins.

The next series deals with Cytochrome P450 2C19 (Homo sapiens, UniProt P33261). The series is described as follows: Drug metabolism assessed as human recombinant CYP2C19-mediated 17-hydroexemestane formation rate per pmol of enzyme at 10 uM after 10 mins.
Cytochrome P450 2C19, sequence (P33261 whole entry): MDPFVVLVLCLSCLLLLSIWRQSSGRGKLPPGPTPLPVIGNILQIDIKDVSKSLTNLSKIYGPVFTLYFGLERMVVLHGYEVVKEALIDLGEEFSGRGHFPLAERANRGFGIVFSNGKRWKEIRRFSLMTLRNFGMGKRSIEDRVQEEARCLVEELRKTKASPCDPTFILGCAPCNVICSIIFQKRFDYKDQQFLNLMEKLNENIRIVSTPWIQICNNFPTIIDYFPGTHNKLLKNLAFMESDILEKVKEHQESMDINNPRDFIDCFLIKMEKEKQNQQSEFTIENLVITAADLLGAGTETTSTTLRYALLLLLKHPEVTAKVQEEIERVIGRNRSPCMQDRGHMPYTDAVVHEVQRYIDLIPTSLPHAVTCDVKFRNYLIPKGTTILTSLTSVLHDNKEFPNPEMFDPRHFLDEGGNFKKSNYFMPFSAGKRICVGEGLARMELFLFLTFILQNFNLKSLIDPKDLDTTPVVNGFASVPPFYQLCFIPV
The subject of series [1] is Liver microsome. The series is described as follows: Drug metabolism in human liver microsomes assessed as retention time treated with 300 uM of exemestane after 10 mins by HPLC with UV analysis. (Liver microsomes are vesicles of endoplasmic reticulum, rich in cytochrome P450 enzymes.)
In series [2] the test system is Liver microsome. Put plainly: Drug metabolism in human liver microsomes assessed as 17-hydroexemestane formation at 10 uM after 10 mins by LC-MS/MS analysis.
The target in another series is T4, Aromatase (Homo sapiens, UniProt P11511).
T4 sequence (P11511 whole entry): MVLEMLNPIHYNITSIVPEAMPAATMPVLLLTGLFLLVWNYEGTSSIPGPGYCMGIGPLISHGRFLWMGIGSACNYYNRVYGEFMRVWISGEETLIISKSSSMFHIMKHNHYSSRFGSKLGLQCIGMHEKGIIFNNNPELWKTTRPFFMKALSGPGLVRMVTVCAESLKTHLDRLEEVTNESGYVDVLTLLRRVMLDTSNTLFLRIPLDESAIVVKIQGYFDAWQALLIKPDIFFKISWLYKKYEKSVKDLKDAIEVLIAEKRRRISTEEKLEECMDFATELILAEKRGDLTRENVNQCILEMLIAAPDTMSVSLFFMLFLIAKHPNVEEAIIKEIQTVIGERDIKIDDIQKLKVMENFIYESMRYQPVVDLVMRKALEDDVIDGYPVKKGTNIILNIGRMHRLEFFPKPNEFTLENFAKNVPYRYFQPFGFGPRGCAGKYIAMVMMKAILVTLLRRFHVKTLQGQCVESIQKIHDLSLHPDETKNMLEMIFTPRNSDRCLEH
The series is described as follows: Drug metabolism assessed as human recombinant CYP19-mediated 17-hydroexemestane formation at 10 uM after 10 mins by Michaelis-Menten saturation curve analysis. The conditions noted are these: recombinant enzyme.

Cytochrome P450 3A5, sequence (P20815 whole entry): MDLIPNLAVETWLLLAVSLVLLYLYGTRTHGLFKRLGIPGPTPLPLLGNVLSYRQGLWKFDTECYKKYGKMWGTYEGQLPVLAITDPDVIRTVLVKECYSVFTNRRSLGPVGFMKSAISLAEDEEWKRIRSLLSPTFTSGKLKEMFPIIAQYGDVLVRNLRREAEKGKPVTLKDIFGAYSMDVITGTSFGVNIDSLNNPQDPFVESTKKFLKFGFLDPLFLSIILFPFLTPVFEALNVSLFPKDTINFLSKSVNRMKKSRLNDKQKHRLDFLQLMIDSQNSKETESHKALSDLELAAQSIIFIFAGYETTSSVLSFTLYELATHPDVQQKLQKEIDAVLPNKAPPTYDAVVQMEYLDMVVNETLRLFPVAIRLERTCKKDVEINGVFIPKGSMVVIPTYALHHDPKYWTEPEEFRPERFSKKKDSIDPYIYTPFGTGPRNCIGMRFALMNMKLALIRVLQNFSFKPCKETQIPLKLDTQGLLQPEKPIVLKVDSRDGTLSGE

With `C=C1C[C@@H]2[C@H](CC[C@]3(C)C(O)CC[C@@H]23)[C@@]2(C)C=CC(=O)C=C12` (stereo partly drawn), the Drug metabolism on Cytochrome P450 1A1 is 1.09 pmol/min; at Cytochrome P450 2A6 it was 0.51 pmol/min; on Cytochrome P450 3A5 it was 0.21 pmol/min; on Cytochrome P450 2B6, 0.3 pmol/min; at Cytochrome P450 2C19, “metabolite_not_detected”; on Aromatase it was “metabolite_detected”. Further, in the series on Liver microsome [1], the Retention_time came out at 13.1 min. The “Vmax(app)” value in the series on Liver microsome [2] is 137.32 pmol/mg/min.
